Entries after “also recorded” stand apart in the source; their conditions may differ.
Experiments:
[1] = tested on: wild-type arabiodopsis seeds (ecotype Columbia); assay: Germination and growth of wild-type Arabidopsis seedlings on ½MS medium containing plant growth substance; assay type: in vivo
Description: (§1) It is thus likely that overexpression directly or indirectly leads to changes in the levels of plant growth substances. Plant cells affected in this manner can secrete regulatory signals affecting neighboring cells or tissues. It is thus shown herein that by using plant material overexpressing one or more members of the protein family described with the sequence identifiers mentioned, the development of other plant material (including non-transformed material) can be altered towards a more organogenic/embryogenic pathway.

[2] = tested on: mutant phenotypes caused by NM—115413.1/NM—106300.1 overexpression constructs; assay: Effect of plant growth substance on NM_115413.1/NM_106300.1 overexpressing mutant phenotypes; assay type: in vivo, Arabidopsis; details: applied to overexpressing lines
Description: as §1

CC(C)[C@@H](C)[C@@H](O)[C@H](O)[C@@H](C)[C@H]1CC[C@H]2[C@@H]3COC(=O)[C@H]4C[C@H](O)[C@H](O)C[C@]4(C)[C@H]3CC[C@]12C [24-epibrassinolide]
seedling growth phenotype after germination on medium containing the substance ([1]; 4 μM in ½MS medium, 14 and 28 dag, controls 0.1% DMSO, FIG. 3): growth aberrations resembling those seen in NM—115413.1 or NM—106300.1 overexpressing seedlings can be observed | somatic embryogenesis in wild-type plants ([1]; wild-type plants, FIG. 3): somatic embryogenesis was not observed | ability to mimic the mutant phenotypes caused by overexpression constructs in wild-type plants ([1]; wild-type plants, compared with other plant growth substances investigated): can mimic some of the effects of overexpression of the proteins of the invention; also recorded: most profound effect on wild-type plants | effect on mutant (overexpression) phenotypes [2]: able to make the mutant phenotypes more vigorous
